Molecular target: Acetylcholinesterase (Electrophorus electricus, UniProt O42275)
Sequence (O42275 whole entry): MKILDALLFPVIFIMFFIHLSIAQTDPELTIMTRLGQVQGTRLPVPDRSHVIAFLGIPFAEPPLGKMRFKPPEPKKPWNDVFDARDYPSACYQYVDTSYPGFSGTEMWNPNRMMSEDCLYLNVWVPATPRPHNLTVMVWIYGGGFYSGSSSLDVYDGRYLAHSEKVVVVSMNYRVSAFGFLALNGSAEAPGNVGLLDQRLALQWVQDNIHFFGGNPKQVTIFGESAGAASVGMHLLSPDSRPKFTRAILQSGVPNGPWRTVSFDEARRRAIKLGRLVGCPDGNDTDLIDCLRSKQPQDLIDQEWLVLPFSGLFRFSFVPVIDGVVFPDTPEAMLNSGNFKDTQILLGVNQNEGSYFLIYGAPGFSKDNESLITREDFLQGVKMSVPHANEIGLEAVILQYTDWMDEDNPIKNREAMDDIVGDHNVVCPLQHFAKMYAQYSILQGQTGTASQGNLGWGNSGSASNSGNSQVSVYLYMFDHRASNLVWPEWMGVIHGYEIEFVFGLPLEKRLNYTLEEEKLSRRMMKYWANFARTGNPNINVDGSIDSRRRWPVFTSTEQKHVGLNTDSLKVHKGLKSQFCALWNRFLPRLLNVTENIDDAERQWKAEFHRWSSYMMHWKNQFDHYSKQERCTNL
Description: Inhibition of Electrophorus electricus acetylcholinesterase using acetylthiocholineiodide as substrate measured at 30 secs intervals over 9 mins by Ellman's colorimetric assay

| SMILES | IC50 [µM] |
| --- | --- |
| C#Cc1ccc(NC(=O)OCC[Si](C)(C)C)cc1 | 34.4 |
| C#Cc1ccc(OC(=O)OCCC(C)(C)C)cc1 | 59 |

Reference: ChEMBL document CHEMBL3632557, “Ethynylphenyl carbonates and carbamates as dual-action acetylcholinesterase inhibitors and anti-inflammatory agents” (Bioorg Med Chem Lett, 2015)
